The source of these data is PMC4706877, “Antibacterial and Cytotoxic Activity of Compounds Isolated from Flourensia oolepis” (Evidence-based Complementary and Alternative Medicine : eCAM, 2015).

≈ marks a conversion by molar mass, not a printed value. Like-named read-outs stand apart in the source and are kept apart here.

One test has as its system normal hepatocytes. More on the design: method as in PMID 15223357. The note with it: trypan blue exclusion method; cited from earlier work.
In the next test the test system is CML cells. Nature of the test: MTT assay, summary. The settings on record: Homo sapiens, read-out: IC50, range. In kind it is cell-based. The source says: (§1) CCRF-CEM acute lymphoblastic leukemia (ALL) and K562 chronic myeloid leukemia (CML) cells and their MDR P-glycoprotein overexpressing variants, CEM/ADR5000 and Lucena 1, respectively, were a generous gift from Dr. T. Efferth (Institute of Pharmacy and Biochemistry, Johannes Gutenberg University, Mainz, Germany) and Dr. V. Rumjanek (Instituto de Bioquímica Médica Leopoldo de Meis, Universidade Federal do Rio de Janeiro, Rio de Janeiro, Brazil), respectively. The HEK293T non-tumor derived cell line and human isolated mononuclear cells (PBMC) were also tested. […]
(§2) To investigate the cytotoxic potential of the isolated compounds, the MTT colorimetric assay was performed. […] The compounds were evaluated at a final maximum concentration of 100 μM. […] Absorbance was measured with an iMark micro-plate reader (Bio-Rad, USA) at 595 nm. […] The percentage of cytotoxic activity of the assayed compounds was determined by the following formula: cytotoxicity (%) = [1 − (optical density of treated cells − optical density DMSO)/(optical density of ethanol control cells − optical density DMSO)] × 100.
(In general: Tetrazolium assays rely on reduction of a dye to a coloured formazan, in cell work by metabolically active cells.)

For a further test, the system named is ALL cells. Put plainly: MTT assay, summary. In kind it is cell-based. The note with it: Homo sapiens, read-out: IC50, range.
From the text: as §1, §2

Test [1] has as its system K562 cells. Nature of the test: Apoptosis by Annexin V/PI double staining. In kind it is cell-based, human. The settings on record: 2 × IC50, 72 h. The method, then: (§3) After incubation, cells were harvested, washed, and suspended in cold PBS. The proportion of cells undergoing apoptosis was examined by double staining using allophycocyanin (APC) conjugated Annexin-V (BD Pharmingen, USA) and propidium iodide (Sigma-Aldrich CO, USA). Over the following hour, the fluorescence of ten thousand cells, including that of control groups, was assayed and populations were analyzed with FlowJo software version 7.6.2 (Tree Star, Inc., OR, USA). Percentages of Annexin-V positive cells (PI− or PI+) indicate early or late apoptosis, respectively.

For another test, the system named is CCRF-CEM cells. Put plainly: Apoptosis by Annexin V/PI double staining. In kind it is cell-based, human. The note with it: 2 × IC50, 72 h. The method, then: as §3
Test [2] concerns tetracycline, erythromycin, and polymyxin-resistant Proteus mirabilis (Pr2921). Nature of the test: Agar dilution MIC / MBC. In kind it is cell-based. The settings on record: P. mirabilis. As to the method:
(§4) This isolate was identified by conventional biochemical assays and by the commercial system API20E (bioMérieux SA, Mercy L'Etoile, France). Antimicrobial resistances were determined by disk diffusion susceptibility testing (Kirby-Bauer Method) according to CLSI [15]. Bacterial suspensions were prepared on sterile saline from each organism grown overnight. Turbidity was spectrophotometrically adjusted to the McFarland 0.5 standard. Dilutions were carried out with sterile saline to give an adjusted concentration of 1.5 × 10^7 colony-forming units/mL.
(§5) Three independent experiments were carried out. […] For reading, visual observations were carried out.

Test [3] deals with Staphylococcus aureus subsp. aureus (ATCC 6538). Put plainly: Agar dilution MIC / MBC. The settings on record: S. aureus; for MBC: value in parentheses. In kind it is cell-based. The method, then:
as §4, §5
(In general: In agar dilution, organisms are placed on agar that contains the substance at set levels.)

In test [4] the test system is Escherichia coli (ATCC 25922). Put plainly: Agar dilution MIC / MBC. The test is classed as cell-based. The settings on record: ATCC25922, E. coli. As to the method:
as §4, §5

Test [5] has as its system Enterococcus faecalis (ATCC 29212). Put plainly: Agar dilution MIC / MBC. In kind it is cell-based. The settings on record: ATCC29212, E. faecalis. The method, then: as §4, §5
Test [6] has as its system Pseudomonas aeruginosa (ATCC 27853). Nature of the test: Agar dilution MIC / MBC. In kind it is cell-based. The note with it: ATCC27853, P. aeruginosa. The method, then: as §4, §5
The subject of test [7] is K562 cells. Put plainly: Cell cycle distribution by flow cytometry (PI). In kind it is cell-based, human. The settings on record: 2 × IC50, 72 h. The method, then:
[…] After treatment, cells were harvested and washed twice with ice cold PBS. Then, cells were fixed with 70% cold ethanol and kept at 4°C for 24 h. Before analysis, the cells were washed twice with PBS and stained with a solution containing propidium iodide (PI, 50 μg/mL, Sigma-Aldrich CO, USA) and RNase A (100 μg/mL, Sigma-Aldrich CO, USA) in PBS (pH 7.4) for 30 min in the dark. DNA content was evaluated by flow cytometry. The relative distribution of at least 20,000 cells was analyzed using FlowJo software version 7.6.2 (Tree Star, Inc. OR, USA).
(In general: A flow cytometer gives signals particle by particle.)

For test [8], the system named is K562 chronic myeloid leukemia cells. Put plainly: MTT cell proliferation assay. The test is classed as cell-based, human. The note with it: for IC50: K562, MTT, 72 h, read-out: IC50 values and 95% confidence limits (lower, upper). The method, then: The HEK293T non-tumor derived cell line and human isolated mononuclear cells (PBMC) were also tested. […] Cells were cultured at 37°C in a 5% CO2 humidified environment.
To investigate the cytotoxic potential of the isolated compounds, the MTT colorimetric assay was performed. […] The compounds were evaluated at a final maximum concentration of 100 μM. After 72 hours, 20 μL of 5 mg/mL solution of MTT in sterile PBS was added to each well and further incubated for 4 h. Then, the supernatants were removed and replaced with 100 μL DMSO to solubilize the resulting purple formazan crystals produced from metabolically viable cells. Absorbance was measured with an iMark micro-plate reader (Bio-Rad, USA) at 595 nm. Two wells were used for each concentration of the products assayed and three independent experiments were performed. […] The percentage of cytotoxic activity of the assayed compounds was determined by the following formula: cytotoxicity (%) = [1 − (optical density of treated cells − optical density DMSO)/(optical density of ethanol control cells − optical density DMSO)] × 100.
Data were analyzed by one-way analysis of variance (ANOVA) and means were compared using Bonferroni's comparison test, with p ≤ 0.05 considered as statistically significant.

On to `O=C(/C=C/c1ccccc1)c1ccc(O)cc1O` [Compound 1, 2′,4′-dihydroxychalcone], for which the IC50 in the test with normal hepatocytes is 34 mg/L (≈ 142 µM); with CML cells it was 27.5 to 30 µM; in the test on ALL cells, 6.6 to 9.9 µM; in [8] (Homo sapiens, K562, 72 h), under 30 µM; in test [8], 27.5 µM. Besides, the results for the “early and late apoptotic cells” value in the test with K562 cells [1] and in the test on CCRF-CEM cells were 68.7% and 26.7%, respectively. Besides, the MIC came out at 62 mg/L (≈ 258 µM) in test [2] (agar dilution, 24 h); 31 mg/L (≈ 129 µM) in test [3] (Staphylococcus aureus, ATCC6538, agar dilution, 24 h); 250 mg/L (≈ 1040 µM) in [4] (agar dilution, 24 h); 62 mg/L (≈ 258 µM) in test [5] (agar dilution, 24 h); 250 mg/L (≈ 1040 µM) in [6] (agar dilution, 24 h). The MBC in test [2] (value in parentheses) was 125 mg/L (≈ 520 µM); in test [3] it was 31 (31) μg/mL; in test [3] (Staphylococcus aureus, ATCC6538, read-out: MBC) it was 31 mg/L (≈ 129 µM); in test [4] (value in parentheses), 500 mg/L (≈ 2080 µM); in test [5] (value in parentheses), 125 mg/L (≈ 520 µM); in test [6] (value in parentheses), over 500 mg/L. Further, the “cells in the G2/M phase” value in the test on K562 cells [7] came out at 19%. The “hypodiploid sub-G1 population” value in the test with K562 cells [7] (ethanol control 1%) is 25%. In addition, the “selectivity index (SI)” value in [8] (IC50 PBMC / IC50 K562) was 3.0.

What is called IC50 is the concentration that inhibits the measured activity by half. What is called MIC is the lowest concentration that inhibits growth of the organism. A lower MIC goes with inhibition by little substance.
